# Source: ChEMBL document CHEMBL3046849, “Composition of essential oil of Chinese Chenopodium ambrosioides and insecticidal activity against maize weevil, Sitophilus zeamais” (2011)
# Assays:
# Type in all cases: functional
# Sitophilus zeamais [1] = assay: Contact toxicity against adult Sitophilus zeamais assessed as mortality applied to dorsal thorax of insect measured daily for 1 week; conditions: 168 h
# Sitophilus zeamais [2] = assay: Insecticidal activity against adult Sitophilus zeamais assessed as mortality measured daily for 1 week by fumigation assay; conditions: 168 h
# Sitophilus zeamais [3] = assay: Insecticidal activity against adult Sitophilus zeamais assessed as mortality after 24 hr by fumigation assay
Compound,LD50 (Sitophilus zeamais [1]) [mg/kg],LC50 (Sitophilus zeamais [2]) [µg/mL],LC50 (Sitophilus zeamais [3]) [µg/mL]
CC1=CC2C(CC1)C2(C)C (configuration not stated) [2-CARENE],3.55,14,
CC(C)[C@@]12C=C[C@@](C)(CC1)OO2 [(Z)-ASCARIDOLE],0.86,0.84,
CC1=CC=C(C(C)C)CC1 [ALPHA-TERPINENE],3.47,5.46,
CBr [BROMOMETHANE],,,0.67
CC(C)[C@]12CC[C@@]3(C)O[C@H]3[C@H]1O2 [ISOASCARIDOLE],2.16,2.45,
Cc1ccc(C(C)C)cc1 [P-CYMENE],> 23.2,23.3,
P [PHOSPHINE],,,0.006
